Assay results taken from US9170253B2, “Method and device for measuring multiple physiological properties of cells” (Seahorse Bioscience, priority 2003, dated 2015).

Columns and labels:
C2C12 Myoblasts [1] = test: Effect of 2,4 DNP on O2, CO2 and pH flux rates of C2C12 myoblasts (prototype enclosed sample chamber); assay type: cell-based, murine; conditions: for CO2 Rate / O2 Rate / pH Rate: 20 minute measurement
From the text: (§1) The device included a cylindrical vessel, fabricated from polycarbonate material, and designed to receive a 12 mm diameter, polycarbonate membrane assembly (Corning Snapwell™ P/N 3802) with a pore size of approximately 3 μm. A cylindrical polycarbonate cover could be temporarily inserted into the vessel to form a smaller sample chamber, approximately 1.5 mm high, with a volume of about 160 microliter (μl). A series of bores around the perimeter of the vessel allowed the insertion of three 500 μm diameter optical fibers. The distal tip of each optical fiber was coated with a fluorescent sensing material to form a biosensor.
(§2) The three biosensors were designed to measure the partial pressures of O2 and CO2, and the pH of the media contained within the vessel. One fiber tip was coated with a matrix of Ruthenium dyes, encapsulated in oxygen permeable silicone rubber, to provide a readout of dissolved oxygen concentration. A second fiber tip was coated with a complex of Fluoroscene dye encapsulated in silicone rubber, to provide a readout of H^+ ion concentration (pH). A third biosensor was fabricated by using a CO2 permeable membrane to create a small reservoir of NaHCO3 surrounding a HydroxyPyrene Trisodium Salt (HPTS) pH sensitive dye. A change in CO2 concentration in the cell media would then cause a change in pH of this encapsulated reagent resulting in a measurable change in the fluorescent properties of the pH sensitive dye, and this change was calibrated to provide quantitative CO2 concentration data.
(§3) To determine the extracellular flux rates of O2 and CO2, the rates of change of partial pressures were divided by volume of each analytes available in the media (moles) to result in a value expressed in nmol/minute. The rate of acidification was expressed in mpH units/min (multiplied by 20 for scaling on the chart), but can easily be shown as protons per minute by calculating the number of available […] in the media buffer within the known sample volume.
In this experiment, C2C12 myoblasts were seeded on 12 mm diameter polycarbonate membranes and incubated for 12 hours. Wells were then removed from the incubator, inspected visually, and placed into the measurement device. 160 μl of NaHCO3-free DMEM medium was then added, and the device was assembled to form an enclosed sample chamber.
(§4) The dissolved concentrations of O2 and CO2, and the pH in the media were then measured every 5 seconds for a period of 20 minutes in order to determine a control baseline for each analyte flux. Once the baseline was established, a sequence of experiments were performed where varying doses of 2,4 DNP (obtained from Sigma, St. Louis Mo.) were added to the cell media and a 20 minute measurement of analyte flux rates was performed. A control experiment was also performed using the highest dose of 2,4 DNP, but without cells.

C2C12 Myoblasts [2] = test: Effect of Rotenone on O2, CO2 and pH flux rates of C2C12 myoblasts (prototype enclosed sample chamber); assay type: cell-based, murine; parameters: key to O2 Rate / CO2 Rate: flux rate in nmol/minute; conditions: for CO2 Rate / O2 Rate / pH Rate: 20 minute measurement
From the text: as §1, §2, §3
Rotenone is known to inhibit cellular respiration by blocking NADH dehydrogenase in the respiratory chain. C2C12 Myoblasts were used to show this effect. 1.5×10^5 C2C12 myoblasts were seeded on membranes, incubated and placed in the measurement system along with 150 μl NaHCO3-free DMEM medium of as described in Example 3.
as §4, with “Rotenone” for “2,4 DNP”, “Rotenone,” for “2,4 DNP,”

CHO-M3 cells = test: Effect of carbachol on O2 consumption, CO2 production and extracellular acidification rates of CHO-M3 cells (stop flow cycles); assay type: cell-based, Chinese hamster
From the text: Chinese hamster ovary (CHO) cells were transfected to over-express the muscarinic receptor subtype m3. The prototype device described in Example 1 was then used to monitor O2 consumption, CO2 production, and extracellular acidification rates, following treatment with the well-known, general acetylcholine receptor agonist, Carbachol.
Materials and Methods: Cell culture reagents were obtained from Gibco BRL (Grand Island, N.Y.). Carbachol was purchased from Sigma Chemical Co. (St. Louis, Mo.). Bicarbonate-free DMEM medium was obtained from Specialty Media (Phillipsburg, N.J.). Polycarbonate membrane snapwells (12 mm diameter, 3 μm pore size) were obtained from Corning (Corning, N.Y.). CHO cells expressing m3-muscarinic receptors (CHO-M3 cells) were obtained from the American Type Tissue Culture (ATCC; Manassas, Va.). Cells were cultured in Ham's F-12 medium supplemented with 10% fetal bovine serum (Hyclone), 1% GlutaMax and 0.1% Gentamicin and were maintained in a 5% CO2 incubator. Cells were subcultured when they reached 80% confluency. CHO-M3 cells were seeded at a density of 2×10^5 onto a snapwell 24 hours prior to use. Immediately prior to testing, cells on snapwells were switched to bicarbonate-free DMEM medium combined with 3.7 g/l NaCl to maintain osmolarity (medium pH 7.4-7.5).
Protocol Description: Probes were calibrated immediately prior to testing. The bottom of the test vessel was filled with bicarbonate-free medium. The snapwell was removed from a 5% CO2 incubator, and the regular growth medium (Ham's F-12) was replaced with bicarbonate-free DMEM medium. Thereafter, the snapwell was placed into the test vessel. Bicarbonate-free medium was pipetted onto the top of the snapwell, and the cover piece of the test vessel was placed gently on top of the snapwell and screwed into place, compressing the assembly. The probe software was started, and the pH, CO2 and O2 analytes were measured over the next 3.5 hours. Following the initial 1.5 hours of perfusion at a rate of 78 μl/min, a series of stop flow (10 minutes each) and medium re-perfusion (10 minutes each, 78 μl/min) cycles were started. During the last 2 minutes of medium re-perfusion cycle number 5, 100 μM carbachol was perfused across the snapwell. During re-perfusion number 6, bicarbonate-free DMEM medium was once again perfused across the snapwell. A rate of change for the analytes was calculated during each stop flow cycle.
The first four series of perfusion/stop flow cycles were done to establish a noise band on the three analytes prior to carbachol treatment during perfusion number 5. Bicarbonate-free medium re-perfusion during per perfusion number 6 and the rates calculated during stop flow number 6 were to assess potential continuing post-carbachol treatment effects on analytes' rates. Resulting data are shown below in Table 6 and in FIG. 11.

[3] = Rotenone dose 25 (unit not given)
[4] = Rotenone dose 50 (unit not given)
[5] = Rotenone dose 100 (unit not given)
[6] = Rotenone dose 200 (unit not given)
[7] = Stop Flow 5, after 2-minute exposure to 100 μM carbachol
[8] = Stop Flow 6, post-carbachol, after re-perfusion with bicarbonate-free medium

O=[N+]([O-])c1ccc(O)c([N+](=O)[O-])c1 [2,4 DNP]
CO2/O2 (C2C12 Myoblasts [1]; 2,4 DNP dose 10 μm): 2.18 | O2/pH (C2C12 Myoblasts [1]; 2,4 DNP dose 10 μm): 0.46 | CO2 Rate (C2C12 Myoblasts [1]; 2,4 DNP dose 10 μm): 2.78 nM/min | O2 Rate (C2C12 Myoblasts [1]; 2,4 DNP dose 10 μm): 1.26 nM/min | pH Rate (C2C12 Myoblasts [1]; 2,4 DNP dose 10 μm): 0.028 pH/min | CO2/O2 (C2C12 Myoblasts [1]; 2,4 DNP dose 50 μm): 2.13 | O2/pH (C2C12 Myoblasts [1]; 2,4 DNP dose 50 μm): 0.64 | CO2 Rate (C2C12 Myoblasts [1]; 2,4 DNP dose 50 μm): 4.24 nM/min | O2 Rate (C2C12 Myoblasts [1]; 2,4 DNP dose 50 μm): 1.99 nM/min | pH Rate (C2C12 Myoblasts [1]; 2,4 DNP dose 50 μm): 0.031 pH/min | CO2/O2 (C2C12 Myoblasts [1]; 2,4 DNP dose 100 μm): 2.00 | O2/pH (C2C12 Myoblasts [1]; 2,4 DNP dose 100 μm): 0.73 | CO2 Rate (C2C12 Myoblasts [1]; 2,4 DNP dose 100 μm): 4.59 nM/min | O2 Rate (C2C12 Myoblasts [1]; 2,4 DNP dose 100 μm): 2.30 nM/min | pH Rate (C2C12 Myoblasts [1]; 2,4 DNP dose 100 μm): 0.032 pH/min | O2 consumption rates (effect of treatment) (C2C12 Myoblasts [1]; over doses of Table 3): dose-dependent increase | extracellular acidification (effect of treatment) (C2C12 Myoblasts [1]; over doses of Table 3): little effect

C=C(C)[C@H]1Cc2c(ccc3c2O[C@@H]2COc4cc(OC)c(OC)cc4[C@@H]2C3=O)O1 [Rotenone]
CO2/O2 (C2C12 Myoblasts [2]; [3]): 4.00 | O2/pH (C2C12 Myoblasts [2]; [3]): 0.17 | CO2 Rate (C2C12 Myoblasts [2]; [3]): 1.76 | O2 Rate (C2C12 Myoblasts [2]; [3]): 0.44 | pH Rate (C2C12 Myoblasts [2]; [3]): 0.026 | CO2/O2 (C2C12 Myoblasts [2]; [4]): 8.02 | O2/pH (C2C12 Myoblasts [2]; [4]): 0.08 | CO2 Rate (C2C12 Myoblasts [2]; [4]): 2.08 | O2 Rate (C2C12 Myoblasts [2]; [4]): 0.26 | pH Rate (C2C12 Myoblasts [2]; [4]): 0.031 | CO2/O2 (C2C12 Myoblasts [2]; [5]): 12.18 | O2/pH (C2C12 Myoblasts [2]; [5]): 0.09 | CO2 Rate (C2C12 Myoblasts [2]; [5]): 2.34 | O2 Rate (C2C12 Myoblasts [2]; [5]): 0.19 | pH Rate (C2C12 Myoblasts [2]; [5]): 0.023 | CO2/O2 (C2C12 Myoblasts [2]; [6]): 69.84 | O2/pH (C2C12 Myoblasts [2]; [6]): 0.02 | CO2 Rate (C2C12 Myoblasts [2]; [6]): 2.24 | O2 Rate (C2C12 Myoblasts [2]; [6]): 0.04 | pH Rate (C2C12 Myoblasts [2]; [6]): 0.027 | O2 consumption rate (effect of treatment) (C2C12 Myoblasts [2]; over doses of Table 4): dose-dependent decrease

C[N+](C)(C)CCOC(N)=O [carbachol, Carbachol]
CO2 rate versus baseline (CHO-M3 cells; 2-minute exposure to carbachol): increases above baseline levels | O2 rate versus baseline (CHO-M3 cells; 2-minute exposure to carbachol): increases above baseline levels | change in pH rate versus average baseline (CHO-M3 cells; 2-minute exposure to carbachol, 0.01 PHU/min baseline): doubling | CO2 Rate (CHO-M3 cells; [7]): 0.20 nmol/min | O2/CO2 Ratio (CHO-M3 cells; [7]): 1.99 | O2/pH Ratio (CHO-M3 cells; [7]): 0.26 | O2 Rate (CHO-M3 cells; [7]): 0.40 nmol/min | pH Rate (CHO-M3 cells; [7]): 0.02 PHU/min | CO2 Rate (CHO-M3 cells; [8]): 0.10 nmol/min | O2/CO2 Ratio (CHO-M3 cells; [8]): 3.34 | O2/pH Ratio (CHO-M3 cells; [8]): 0.29 | O2 Rate (CHO-M3 cells; [8]): 0.33 nmol/min | pH Rate (CHO-M3 cells; [8]): 0.01 PHU/min | Post-treatment rates versus pre-treatment values (CHO-M3 cells; stop flow period number 6): essentially returned to pre-treatment values
